Measured values taken from EP1674110A1, “Inhibition of bradykinin release” (priority 1999, dated 2000).

Tests used:
BAEC monolayers = test: EC intracellular free Ca2+ (fluo-3) after CD18 cross-linking of PMNs; format: cell-based, bovine; settings: endothelial cells pre-treated with BAPTA AM; concentration not given
Procedure: The Ca^2+ sensitive fluorescent probe fluo-3/AM (Molecular Probes Europe BV, Leiden, The Netherlands) is used for determination of changes in EC intracellular free Ca^2+. Confluent BAEC monolayers on filters are incubated for 30 min at 37°C with fluo-3/AM (3µM in HBSS containing 2% FCS and 10 mM HEPES) added to both the apical and basolateral surface. The monolayers are washed three times and incubated with fresh HBSS in the dark for 20 min at room temperature to allow complete hydrolysis of the dye ester. Anti-CD18 or anti-L-selectin mAb treated PMNs are added to ECs and receptor cross-linking is induced with secondary mAb as described above. In separate experiments, PMN secretion containing medium (see above) is used to stimulate ECs in the absence of PMNs. Changes in EC [Ca^2+]i in response to these stimuli are measured through continuous registration of fluorescence intensity with a laser-scanning confocal imaging system (Insight Plus; Meridian Instruments Inc., Okemon, Michigan).
Monolayers of endothelial cells are labelled with the Ca^2+-sensitive fluorophore fluo-3, and stimulus-induced changes in EC [Ca^2+]i monitored by confocal laser scanning microscopy. Adding anti-CD18 treated PMNs to the EC monolayer caused no change in EC [Ca^2+]. […]

[1] = tested on: endothelial cells (HUVEC or BAEC); test: Transendothelial electrical resistance (TEER) after CD18 cross-linking of PMNs; format: cell-based; settings: endothelial cells pre-treated with BAPTA AM; concentration not given
Procedure: Human umbilical vein endothelial cells (HUVEC) and bovine aorta endothelial cells (BAEC) are isolated and cultured as previously described (Gautam et al. 1998, Brit. J. Pharm. 125:1109-1114). HUVEC or BAEC in the first to fifth passages are detached by brief (2 min) trypsin-EDTA treatment (0.25% trypsin/0.01 % EDTA) and replated onto either 0.2 µm pore size Anopore inorganic membrane or 3.0 µm pore size polycarbonate filters (Tissue Culture inserts, 10 mm; NUNC, Roskilde, Denmark). In order to promote cellular differentiation and enhance attachment of endothelial cells (ECs), the filters are pretreated with 50 µl Biomatrix I (167 µg/ml) and air-dried. […] The EC are grown to confluent monolayers, as assessed by daily microscopic observation and measurement of the electrical resistance across the monolayer (Gautam et al. 1998, Brit. J. Pharm. 125:1109-1114).
Two different approaches are used for assessment of stimulation-induced changes in EC permeability. […] Electrical resistance across the EC monolayer is measured at 37°C with electrodes in each compartment exactly positioned in relation to each other and to the monolayer. The electrical resistance of individual EC monolayers is obtained by subtracting the resistance of the corresponding naked filter coated with Biomatrix as measured prior to seeding of the endothelial cells. […]

[2] = molecular target: HBP (heparin-binding protein, CAP37); settings: lipid A component of LPS and endotoxin binding to HBP; read-out: Kass (converted); cited from earlier work

Compound	rise in EC free intracellular Ca^2+ in response to CD18 cross-linking (BAEC monolayers)	change in TEER in response to CD18 cross-linking [1]	Kd [2] [nM]
CC(=O)OCOC(=O)CN(CC(=O)OCOC(C)=O)c1ccccc1OCCOc1ccccc1N(CC(=O)OCOC(C)=O)CC(=O)OCOC(C)=O [BAPTA AM]	completely inhibited	completely inhibited	–
lipid A	–	–	1.25
